These are literature values, as cited in patent US20100093842A1, “Laulimalide Analogs and Uses Thereof” (EISAI CO. LTD., priority 2003, published 2010).

The structures appear in SMILES notation.

Series [1] relates to multi-drug resistant (MDR) cell lines that over express the P-glycoprotein pump (P-gp). To be noted: cell lines over expressing P-gp.
The next series has as its system tubulin. To be noted: low micromolar concentrations; compared with equivalent concentrations of Laulimalide.

Regarding `C=C1C[C@H](C)C[C@@H]2CC=C[C@@H](C/C=C\C(=O)O[C@H]([C@@H](O)/C=C/[C@@H]3CC(C)=CCO3)C[C@@H]3O[C@H]3[C@@H](O)C1)O2` [Laulimalide], in series [1], the “activity against multi-drug resistant (MDR) cell lines” value was “show activity against multi-drug resistant (MDR) cell lines”. Besides, the “in vitro anti-mitotic activity” value in the series with several cancer lines (in vitro) is 5 to 12 nM. The cytotoxic activity entry in the series with several cancer lines (several cancer lines) is listed as “potent cytotoxic activity”.

For `CC(=O)O[C@H]1C(=O)[C@@]2(C)[C@H]([C@H](OC(=O)c3ccccc3)[C@]3(O)C[C@H](OC(=O)[C@H](O)[C@@H](NC(=O)c4ccccc4)c4ccccc4)C(C)=C1C3(C)C)[C@]1(OC(C)=O)CO[C@@H]1C[C@@H]2O` [Paclitaxel], in the series on tubulin, the rate of polymerization result is “faster” and the tubulin polymer formed result is given as “more tubulin polymer was formed”.
